{
  "source": "patent US6593084B2",
  "about": "“Carcinogen assay” (priority 1998, dated 2003)",
  "key": {"mouse liver": {"tested_on": "mouse liver", "assay": "Differential gene expression in livers of DMBA treated mice, Atlas membranes", "conditions": "liver of DMBA treated animal vs control animal"}, "mice": {"tested_on": "mice", "conditions": "cited from earlier work"}, "mammalian cells": {"tested_on": "mammalian cells", "conditions": "mammalian cells in vitro; cited from earlier work"}, "Salmonella": {"tested_on": "Salmonella", "conditions": "cited from earlier work"}, "[1]": {"tested_on": "primary mouse keratinocytes", "assay": "Differential display and Northern blot hybridization of mRNAs in treated primary mouse keratinocytes", "type": "cell-based", "conditions": "24 hours treatment", "experimental": "Cultures of newborn mouse keratinocytes were established essentially as described by H. Hennings (In Keratinocyte Methods, Cambridge University Press (1994), pages 21-23). Briefly, mice two to three days postpartum were sacrificed by metaphane narcosis, rinsed in 70% ethanol, and kept on ice. Skins were peeled off, stretched out and floated (with epidermis facing upward) on the surface of a 0.25% trypsin solution in Ca^+2, Mg^+2 free PBS overnight at 4° C. Skins were transferred to a sterile surface, the epidermis was separated from dermis, the epidermis was minced, and the mixture stirred in serum-free keratinocyte growth medium (KGM, Clonetics). This cell suspension was filtered through nylon gauze, cells were centrifuged (2,000 rpm for 5 min), resuspended in KGM with 20 μM Ca^+2 (20 KGM), and then the cells were counted and plated (approximately 2×10^6 per 10 cm plate coated with mouse collagen type IV in 20 KGM) and the cell cultures were incubated at 37° C. with a 7% CO2. After 16-24 hours, cells were washed in Ca^+2, Mg^+2 free phosphate buffered saline (PBS), and cultivated on 20 KGM, with the cell culture medium changed (that is, old medium discarded and fresh medium provided) each other day. For induction of terminal differentiation, medium was changed, usually on the sixth day of cultivation of the keratinocytes, to KGM containing 1.2 mM Ca^+2, and the keratinocytes were cultivated for 24 hours before RNA isolation.\nFor phorbol-myristate acetate (TPA) treatment, keratinocyte cultures were fed with 20 KGM containing 0.1 μg/ml of 12-O-tetradecanoyil-13-phorbol-acetate for 24 hours, before isolation of RNA.\nTotal RNA was isolated by acid phenol procedure using TRI Reagent™ (Molecular Research Center, Inc.) and according to manufacturer's instructions from (1) terminally differentiated keratinocytes, cultivated in KGM medium containing 1.2 mM Ca^+2 for 24 hours; (2) TPA-treated keratinocytes, cultivated in KGM containing 20 μM Ca^+2 and 0.1 μg/ml TPA for 24 hours; and (3) control keratinocyte cultures fed 24 hours before RNA isolation with 20 KGM containing, in some experiments, 0.05% DMSO (dimethyl sulphoxide).\nDifferential display of total RNAs from keratinocyte cultures (1), (2), and (3) was performed with Delta-RNA Fingerprinting Kit™ (Clontech) according to the manufacturer's instructions. Briefly, cDNAs were synthesized from total RNAs using Murine Moloney Leukemia Virus (MMLV) reverse transcriptase. Two dilutions of cDNA were prepared (diluted 10-fold and 40-fold). Each total RNA sample was used to synthesize cDNA that was amplified using polymerase chain reaction (PCR) methodology using P & T primers in presence of [α-^33P] dATP. […] The appearance of a band from a sample that was not present in the control lane indicated overexpression and the disappearance or reduction in intensity of a band indicated suppression of synthesis. The candidate bands were cut from the sequencing gel and reamplified using the original primer pairs. Following electrophoresis on agarose gels, reamplified DNA fragments were cut out and purified using a QIAEX II gel extraction kit™ (QIAGEN). The DNAs were labeled and used to confirm the differential expression by hybridization with Northern blots of Poly (A)^+ containing RNA isolated from total RNAs (1), (2), and (3). Equal quantities of these RNAs were electrophoresed on agarose gels and blotted to nitrocellulose filters. Equal loading of RNA was confirmed by hybridization with a β-actin probe, whose mRNA was assumed to be present in approximately equal amounts in all of the preparations. The blots were stripped of radiolabel and then used to confirm the differential synthesis of a fragment. Upon confirmation, the fragment was cloned into pCRII using the TA cloning kit™ (Introvitrogen). Cloned DNA fragments were sequenced with SequiTerm Excel II kit™ (Epicentre Technology)."}},
  "data": [
    {"compound": "Cc1c2ccccc2c(C)c2c1ccc1ccccc12", "note": "[DMBA, 7, 12-dimethyl benz[α] anthracene]", "values": [
      {"measurement": "differential pattern of gene expression in liver", "setting": "mouse liver", "value": "differential expression was observed"}
    ]},
    {"compound": "c1ccoc1", "note": "[Furan]", "values": [
      {"measurement": "induction of hepatocellular carcinomas", "setting": "mice", "value": "induce hepatocellular carcinomas"},
      {"measurement": "chromosomal aberrations", "setting": "mammalian cells", "value": "induces"},
      {"measurement": "gene mutations", "setting": "mammalian cells", "value": "induces"},
      {"measurement": "sister chromatide exchanges", "setting": "mammalian cells", "value": "induces"},
      {"measurement": "Salmonella mutagenicity test", "setting": "Salmonella", "value": "negative"}
    ]},
    {"compound": "ClC=C(Cl)Cl", "note": "[TCE, trichloroethylene]", "values": [
      {"measurement": "induction of hepatocellular carcinomas", "setting": "mice", "value": "induce hepatocellular carcinomas"},
      {"measurement": "Salmonella mutagenicity test", "setting": "Salmonella", "value": "negative"}
    ]},
    {"compound": "CCCCCCCCCCCCCC(=O)O[C@@H]1[C@@H](C)[C@@]2(O)[C@@H](C=C(CO)C[C@]3(O)C(=O)C(C)=C[C@@H]23)[C@@H]2C(C)(C)[C@]12OC(C)=O", "note": "[TPA, 12-O-tetradecanoyil-13-phorbol-acetate]", "values": [
      {"measurement": "Changes in Expression (Comparative to Untreated cells)", "setting": "[1]; gene fragment 2552/4, 5.5 kb RNA", "value": "Suppressed in TPA-"},
      {"measurement": "Changes in Expression (Comparative to Untreated cells)", "setting": "[1]; gene fragment 2672/1, Mouse ESTs AA492919, AA607761", "value": "Suppressed in TPA-"},
      {"measurement": "Changes in Expression (Comparative to Untreated cells)", "setting": "[1]; gene fragment 4314, AA109991, AA561914, AA067670, AA864127", "value": "Overexpressed in"},
      {"measurement": "Changes in Expression (Comparative to Untreated cells)", "setting": "[1]; gene fragment 19102/3, Mouse ESTs AA038613, W14382", "value": "Suppressed in TPA-"},
      {"measurement": "Changes in Expression (Comparative to Untreated cells)", "setting": "[1]; gene fragment 31774/6/8, 6 kb RNA, Mouse ESTs AA423711, W82493", "value": "Suppressed in TPA-"},
      {"measurement": "Changes in Expression (Comparative to Untreated cells)", "setting": "[1]; gene fragment 31777, Mouse EST AA073833", "value": "Overexpressed in"},
      {"measurement": "Changes in Expression (Comparative to Untreated cells)", "setting": "[1]; gene fragment 83442, Mouse Connexin 26", "value": "Overexpressed in"},
      {"measurement": "Changes in Expression (Comparative to Untreated cells)", "setting": "[1]; gene fragment 110176/4, homologous to Mouse Cytokeratin Endo A", "value": "Suppressed in TPA-"},
      {"measurement": "Changes in Expression (Comparative to Untreated cells)", "setting": "[1]; gene fragment 3177715, Mouse ESTs AA423711, AA637015", "value": "Suppressed in TPA-"}
    ]}
  ]
}
